Data taken from ChEMBL document CHEMBL4811217, “Peptide-based topical agents and intravenous hemostat for rapid hemostasis” (2020).
Residues, ends and D or L forms follow the SMILES beside them.

How the values were obtained:
Plasma = experiment: Induction of clotting in chicken plasma assessed as thrombin clotting time at 1.5 mM; format: functional, Gallus gallus
Blood = experiment: Induction of blood clotting in chicken serum free blood corpuscles assessed as blood clotting time at 1.5 mM by hayem-method; format: functional, Gallus gallus
[1] = Induction of platelet aggregation in iv dosed Sprague-Dawley rat model of liver injury assessed as reduction in blood loss measured after 30 mins; format: functional; set-up: scale not given: the % may be the effect or the level left; details: 0.5 h

| SMILES | Time (Plasma) [s] | Time (Blood) [s] | Activity [1] [%] |
| --- | --- | --- | --- |
| CC(C)C[C@H](NC(=O)[C@H](Cc1cnc[nH]1)NC(=O)[C@H](Cc1cnc[nH]1)NC(=O)[C@H](CCC(N)=O)NC(=O)[C@@H](N)CCC(N)=O)C(=O)NCC(=O)NCC(=O)N[C@@H](C)C(=O)N[C@@H](CCCCN)C(=O)N[C@@H](CCC(N)=O)C(=O)N[C@@H](C)C(=O)NCC(=O)N[C@@H](CC(=O)O)C(=O)N[C@H](C(=O)O)C(C)C (H-QQHHLGGAKQAGDV-OH) | 35 | 51 |  |
| CC(C)C[C@H](NC(=O)[C@@H](NC(=O)[C@@H](N)CCCNC(=N)N)[C@@H](C)O)C(=O)N[C@@H](C)C(=O)N[C@@H](Cc1ccccc1)C(=O)N[C@H](C(=O)N[C@@H](CCCNC(=N)N)C(=O)N1CCC[C@H]1C(=O)N[C@@H](CCCCN)C(=O)O)C(C)C (H-RTLAFVRPK-OH) |  |  | 60 |
